Experimental data taken from the NIST ThermoML archive (doi:10.1016/j.fluid.2009.06.018).

Legend:
[1] = 298.15 K; 101.33 kPa; Liquid; Vibrating tube method
[2] = refractive index (Na D-line) (dimensionless); conditions: 298.15 K; 101.33 kPa; Liquid; Standard Abbe refractometry
[3] = xn = mol fraction of the nth substance listed; conditions: 298.15 K, 101 kPa, Liquid, Vibrating tube method
[4] = excess molar enthalpy (molar enthalpy of mixing); xn = mol fraction of the nth substance listed; conditions: 298.15 K, 101 kPa, Liquid, Flow calorimetry

CC(Cl)CCl (stereo unspecified) [1,2-dichloropropane]
Conditions | mass density [kg/m3] | refractive index
[1] | 1149.03 | –
[2] | – | 1.43656

CCOCCOCCOCCO [2-(2-(2-ethoxyethoxy)ethoxy)ethanol]
Conditions | mass density [kg/m3] | refractive index
[1] | 1016.19 | –
[2] | – | 1.43623

CCOCCOCCOCCO [2-(2-(2-ethoxyethoxy)ethoxy)ethanol] + CC(Cl)CCl
Conditions | excess molar enthalpy [kJ/mol] | mass density [kg/m3]
[3], x2 = 0.0522 | – | 1020.53
[3], x2 = 0.1019 | – | 1024.84
[3], x2 = 0.1497 | – | 1029.19
[3], x2 = 0.2027 | – | 1034.17
[3], x2 = 0.2538 | – | 1039.19
[3], x2 = 0.3014 | – | 1044.06
[3], x2 = 0.3475 | – | 1048.98
[3], x2 = 0.4037 | – | 1055.22
[3], x2 = 0.4507 | – | 1060.69
[3], x2 = 0.5006 | – | 1066.74
[3], x2 = 0.553 | – | 1073.37
[3], x2 = 0.6023 | – | 1079.92
[3], x2 = 0.6499 | – | 1086.58
[3], x2 = 0.7036 | – | 1094.48
[3], x2 = 0.7524 | – | 1102.1
[3], x2 = 0.8009 | – | 1110.06
[3], x2 = 0.8494 | – | 1118.49
[3], x2 = 0.8988 | – | 1127.79
[3], x2 = 0.9495 | – | 1138.04
[4], x2 = 0.067 | -0.212 | –
[4], x2 = 0.101 | -0.275 | –
[4], x2 = 0.164 | -0.437 | –
[4], x2 = 0.195 | -0.505 | –
[4], x2 = 0.253 | -0.607 | –
[4], x2 = 0.308 | -0.6854 | –
[4], x2 = 0.36 | -0.7418 | –
[4], x2 = 0.41 | -0.7777 | –
[4], x2 = 0.457 | -0.7894 | –
[4], x2 = 0.501 | -0.7898 | –
[4], x2 = 0.544 | -0.7756 | –
[4], x2 = 0.604 | -0.728 | –
[4], x2 = 0.66 | -0.6572 | –
[4], x2 = 0.695 | -0.604 | –
[4], x2 = 0.745 | -0.512 | –
[4], x2 = 0.807 | -0.374 | –
[4], x2 = 0.85 | -0.274 | –
[4], x2 = 0.904 | -0.15 | –
[4], x2 = 0.954 | -0.055 | –

CCCOCCOCCO [2-(2-propoxyethoxy)ethanol]
Conditions | mass density [kg/m3] | refractive index
[1] | 962.74 | –
[2] | – | 1.42727

CCCOCCOCCO [2-(2-propoxyethoxy)ethanol] + CC(Cl)CCl
Conditions | excess molar enthalpy [kJ/mol] | mass density [kg/m3]
[3], x2 = 0.054 | – | 969.58
[3], x2 = 0.105 | – | 976.29
[3], x2 = 0.1473 | – | 982.03
[3], x2 = 0.203 | – | 989.81
[3], x2 = 0.2494 | – | 996.53
[3], x2 = 0.3 | – | 1004.1
[3], x2 = 0.3488 | – | 1011.66
[3], x2 = 0.4014 | – | 1020.11
[3], x2 = 0.4516 | – | 1028.46
[3], x2 = 0.5005 | – | 1036.91
[3], x2 = 0.5504 | – | 1045.89
[3], x2 = 0.5995 | – | 1055.07
[3], x2 = 0.6509 | – | 1065.09
[3], x2 = 0.7009 | – | 1075.28
[3], x2 = 0.752 | – | 1086.18
[3], x2 = 0.8015 | – | 1097.29
[3], x2 = 0.851 | – | 1109.05
[3], x2 = 0.9018 | – | 1121.84
[3], x2 = 0.9476 | – | 1134.08
[4], x2 = 0.06 | -0.147 | –
[4], x2 = 0.119 | -0.251 | –
[4], x2 = 0.147 | -0.297 | –
[4], x2 = 0.202 | -0.374 | –
[4], x2 = 0.255 | -0.429 | –
[4], x2 = 0.306 | -0.4673 | –
[4], x2 = 0.355 | -0.4855 | –
[4], x2 = 0.402 | -0.4906 | –
[4], x2 = 0.447 | -0.4823 | –
[4], x2 = 0.511 | -0.449 | –
[4], x2 = 0.552 | -0.414 | –
[4], x2 = 0.592 | -0.376 | –
[4], x2 = 0.648 | -0.308 | –
[4], x2 = 0.702 | -0.235 | –
[4], x2 = 0.753 | -0.162 | –
[4], x2 = 0.802 | -0.0941 | –
[4], x2 = 0.848 | -0.0302 | –
[4], x2 = 0.907 | 0.026 | –
[4], x2 = 0.948 | 0.0378 | –

COCCOCCOCCO [2-[2-(2-methoxyethoxy)ethoxy]ethanol]
Conditions | mass density [kg/m3] | refractive index
[1] | 1043.3 | –
[2] | – | 1.43673

COCCOCCOCCO [2-[2-(2-methoxyethoxy)ethoxy]ethanol] + CC(Cl)CCl
Conditions | excess molar enthalpy [kJ/mol] | mass density [kg/m3]
[3], x2 = 0.0554 | – | 1047.4
[3], x2 = 0.1 | – | 1050.82
[3], x2 = 0.1507 | – | 1054.88
[3], x2 = 0.1999 | – | 1058.91
[3], x2 = 0.2535 | – | 1063.43
[3], x2 = 0.2977 | – | 1067.32
[3], x2 = 0.3483 | – | 1071.88
[3], x2 = 0.401 | – | 1076.8
[3], x2 = 0.4512 | – | 1081.66
[3], x2 = 0.5013 | – | 1086.65
[3], x2 = 0.5522 | – | 1091.89
[3], x2 = 0.6013 | – | 1097.16
[3], x2 = 0.648 | – | 1102.3
[3], x2 = 0.7005 | – | 1108.34
[3], x2 = 0.7514 | – | 1114.4
[3], x2 = 0.7997 | – | 1120.38
[3], x2 = 0.8567 | – | 1127.98
[3], x2 = 0.8993 | – | 1133.84
[3], x2 = 0.9502 | – | 1141.27
[4], x2 = 0.061 | -0.18 | –
[4], x2 = 0.091 | -0.236 | –
[4], x2 = 0.15 | -0.382 | –
[4], x2 = 0.206 | -0.496 | –
[4], x2 = 0.26 | -0.586 | –
[4], x2 = 0.311 | -0.6589 | –
[4], x2 = 0.36 | -0.7083 | –
[4], x2 = 0.407 | -0.7422 | –
[4], x2 = 0.452 | -0.7579 | –
[4], x2 = 0.496 | -0.7588 | –
[4], x2 = 0.558 | -0.7358 | –
[4], x2 = 0.597 | -0.7037 | –
[4], x2 = 0.654 | -0.6383 | –
[4], x2 = 0.707 | -0.555 | –
[4], x2 = 0.757 | -0.464 | –
[4], x2 = 0.805 | -0.366 | –
[4], x2 = 0.851 | -0.263 | –
[4], x2 = 0.908 | -0.137 | –
[4], x2 = 0.949 | -0.0603 | –

CCCCOCCOCCO [3,6-dioxa-1-decanol]
Conditions | mass density [kg/m3] | refractive index
[1] | 948.48 | –
[2] | – | 1.42998

CCCCOCCOCCO [3,6-dioxa-1-decanol] + CC(Cl)CCl
Conditions | excess molar enthalpy [kJ/mol] | mass density [kg/m3]
[3], x2 = 0.052 | – | 954.88
[3], x2 = 0.1 | – | 961.07
[3], x2 = 0.155 | – | 968.38
[3], x2 = 0.1997 | – | 974.56
[3], x2 = 0.2496 | – | 981.76
[3], x2 = 0.3037 | – | 989.93
[3], x2 = 0.3497 | – | 997.2
[3], x2 = 0.4033 | – | 1006.02
[3], x2 = 0.4504 | – | 1014.14
[3], x2 = 0.4998 | – | 1023.03
[3], x2 = 0.5535 | – | 1033.23
[3], x2 = 0.6001 | – | 1042.57
[3], x2 = 0.6494 | – | 1052.96
[3], x2 = 0.7024 | – | 1064.78
[3], x2 = 0.7527 | – | 1076.67
[3], x2 = 0.8024 | – | 1089.22
[3], x2 = 0.8488 | – | 1101.75
[3], x2 = 0.901 | – | 1116.84
[3], x2 = 0.9479 | – | 1131.48
[4], x2 = 0.066 | -0.163 | –
[4], x2 = 0.098 | -0.209 | –
[4], x2 = 0.161 | -0.308 | –
[4], x2 = 0.191 | -0.36 | –
[4], x2 = 0.248 | -0.411 | –
[4], x2 = 0.303 | -0.449 | –
[4], x2 = 0.355 | -0.4689 | –
[4], x2 = 0.404 | -0.4729 | –
[4], x2 = 0.45 | -0.4621 | –
[4], x2 = 0.495 | -0.441 | –
[4], x2 = 0.558 | -0.392 | –
[4], x2 = 0.598 | -0.357 | –
[4], x2 = 0.654 | -0.287 | –
[4], x2 = 0.707 | -0.215 | –
[4], x2 = 0.757 | -0.144 | –
[4], x2 = 0.803 | -0.0779 | –
[4], x2 = 0.847 | -0.019 | –
[4], x2 = 0.902 | 0.035 | –
[4], x2 = 0.953 | 0.0412 | –

CCCCOCCOCCOCCO [triethylene glycol monobutyl ether]
Conditions | mass density [kg/m3] | refractive index
[1] | 988.44 | –
[2] | – | 1.43973

CCCCOCCOCCOCCO [triethylene glycol monobutyl ether] + CC(Cl)CCl
Conditions | excess molar enthalpy [kJ/mol] | mass density [kg/m3]
[3], x2 = 0.0919 | – | 996.32
[3], x2 = 0.1463 | – | 1001.35
[3], x2 = 0.2006 | – | 1006.67
[3], x2 = 0.2501 | – | 1011.79
[3], x2 = 0.3036 | – | 1017.68
[3], x2 = 0.3548 | – | 1023.63
[3], x2 = 0.4015 | – | 1029.38
[3], x2 = 0.4519 | – | 1035.95
[3], x2 = 0.5032 | – | 1043.04
[3], x2 = 0.5498 | – | 1049.9
[3], x2 = 0.6016 | – | 1058.03
[3], x2 = 0.6526 | – | 1066.61
[3], x2 = 0.701 | – | 1075.35
[3], x2 = 0.7502 | – | 1084.93
[3], x2 = 0.8009 | – | 1095.6
[3], x2 = 0.851 | – | 1107.21
[3], x2 = 0.9003 | – | 1119.7
[3], x2 = 0.9483 | – | 1133.01
[4], x2 = 0.079 | -0.242 | –
[4], x2 = 0.117 | -0.326 | –
[4], x2 = 0.154 | -0.427 | –
[4], x2 = 0.19 | -0.504 | –
[4], x2 = 0.256 | -0.612 | –
[4], x2 = 0.317 | -0.697 | –
[4], x2 = 0.346 | -0.7305 | –
[4], x2 = 0.401 | -0.7777 | –
[4], x2 = 0.452 | -0.7999 | –
[4], x2 = 0.5 | -0.8005 | –
[4], x2 = 0.545 | -0.7866 | –
[4], x2 = 0.606 | -0.7377 | –
[4], x2 = 0.645 | -0.6896 | –
[4], x2 = 0.698 | -0.608 | –
[4], x2 = 0.746 | -0.516 | –
[4], x2 = 0.805 | -0.39 | –
[4], x2 = 0.859 | -0.266 | –
[4], x2 = 0.907 | -0.155 | –
[4], x2 = 0.951 | -0.0688 | –
